Columns and labels:
[1] = target: T1, 5HT1A receptor (Rattus norvegicus, UniProt P19327); test: 5HT1A receptor binding assay (3H-8-OH-DPAT, rat striatum membrane); conditions: for affinity with 5HT1A (in words): summary of in vitro assay; for inhibition at 10 µM: test compound final concentration 10^−5 M, 3H-8-OH-DPAT, rat striatum membrane, read-out: 5HT1A Inhibition rate (%)
T1 construct: Rats were decapitated on ice; from tissue; host or cells: rat brain striatum
T1 sequence (P19327 1-422): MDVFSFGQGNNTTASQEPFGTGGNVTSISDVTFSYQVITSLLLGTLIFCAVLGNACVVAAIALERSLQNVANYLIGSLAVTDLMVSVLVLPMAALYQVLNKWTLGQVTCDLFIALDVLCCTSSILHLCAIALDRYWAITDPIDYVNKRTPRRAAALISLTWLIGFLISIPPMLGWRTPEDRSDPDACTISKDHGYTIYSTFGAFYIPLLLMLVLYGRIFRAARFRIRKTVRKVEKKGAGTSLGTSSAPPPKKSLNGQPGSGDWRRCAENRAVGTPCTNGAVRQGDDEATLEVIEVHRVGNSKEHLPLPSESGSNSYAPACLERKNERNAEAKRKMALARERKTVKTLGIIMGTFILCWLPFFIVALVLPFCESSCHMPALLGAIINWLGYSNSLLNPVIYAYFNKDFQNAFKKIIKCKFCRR
Method: Preparation of 5HT1A Membrane
Rats were decapitated on ice. […] Incubation at 37° C. was conducted for 10 min. […] Centrifugation was conducted at 12000 rpm, 4° C. for 20 min. […] Centrifugation was conducted and repeated 3 times.
(§1) Materials for the Receptor Binding Assay

[2] = tested on: α1 norepinephrine receptor; test: α1 norepinephrine receptor binding assay (3H-prazosin, rat cortex membrane); conditions: for affinity with α1 (in words): summary of in vitro assay; for α1 Inhibition rate (%): test compound final concentration 10^−5 M, 3H-prazosin, rat cortex membrane
Text: Preparation of Receptor Membrane of Norepinephrine
α1 Norepinephrine Receptor Binding Assay

[3] = tested on: D2 receptor; test: D2 receptor binding assay (3H-Spiperone, rat striatum membrane); conditions: for affinity with D2 (in words): summary of in vitro assay; for D2 Inhibition rate (%): test compound final concentration 10^−5 M, 3H-Spiperone, rat striatum membrane
Method: Preparation of D2 Membrane
Rats were decapitated on ice. […] The weight of the homogenized tubes were adjusted using a balance, and centrifugation was conducted. […] Centrifugation was conducted.
as §1

[4] = target: T2, D3 receptor (Homo sapiens, UniProt P35462); test: D3 receptor assay ([3H]-Spiperone, HEK-293 cells); type: binding; conditions: for affinity with D3 (in words): summary of in vitro assay; for inhibition at 10 µM: test compound final concentration 10 μmol/L, [3H]-Spiperone, HEK-293 cells, read-out: D3 Inhibition rate (%)
T2 construct: expressed in transfected cells; host or cells: HEK-293
T2 sequence (P35462 whole entry): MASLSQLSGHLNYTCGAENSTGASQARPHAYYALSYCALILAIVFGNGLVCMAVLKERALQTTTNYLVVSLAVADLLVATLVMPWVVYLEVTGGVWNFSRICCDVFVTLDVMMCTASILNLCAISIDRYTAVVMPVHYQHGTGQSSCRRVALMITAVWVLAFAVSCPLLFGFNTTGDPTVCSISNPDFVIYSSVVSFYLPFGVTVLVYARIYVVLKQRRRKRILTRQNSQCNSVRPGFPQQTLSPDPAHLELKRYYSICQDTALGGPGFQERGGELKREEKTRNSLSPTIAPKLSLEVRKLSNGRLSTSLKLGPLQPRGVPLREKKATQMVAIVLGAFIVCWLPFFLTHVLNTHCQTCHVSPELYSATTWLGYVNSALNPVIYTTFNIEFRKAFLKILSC
Method: Then the cells were centrifuged at 1000 rpm for 5 min, the supernatant was discarded, and the cell pellets was collected and stored in a −20° C. fridge for reservation. It was re-suspended with Tris-Cl (pH 7.4) when the assay was performed.
Tris was divided into aliquots by Genetimes Technology Inc.
Competitive binding test for receptors: 20 μl of each of the test compounds and 20 μl of the radioactive ligand together with 160 μl of the receptor proteins were added into the reaction tubes, and the final concentrations of the test compound and the positive drug were all 10 μmol/L. After 50 min of incubation in 30° C. water bath, the tubes were immediately moved to ice bath to terminate the reactions. GF/C glass fiber filter papers were used for rapid sucking filtration on a Millipore cell sample collector, 3 ml of elution buffer (50 mM Tris-HCl, PH 7.4) was applied for 3 times, and microwave was applied for 4-5 min for drying. The filter paper was moved into 0.5 ml centrifuge tube, and 500 μl of liposoluble scintillation cocktail was added. The tubes were allowed to stand still for over 30 min in dark, and the intensities of radioactivity were measured by a counter.

[5] = target: T3, 5HT2C receptor (Rattus norvegicus, UniProt P08909); test: 5HT2C receptor binding assay ([3H]-mesulergine, rat striatum membrane); conditions: for affinity with 5HT2C (in words): summary of in vitro assay; for inhibition at 10 µM: test compound final concentration 10^−5 M, [3H]-mesulergine, rat striatum membrane, read-out: 5HT2C Inhibition rate (%)
T3 construct: from tissue; host or cells: rat brain striatum
T3 sequence (P08909 33-460): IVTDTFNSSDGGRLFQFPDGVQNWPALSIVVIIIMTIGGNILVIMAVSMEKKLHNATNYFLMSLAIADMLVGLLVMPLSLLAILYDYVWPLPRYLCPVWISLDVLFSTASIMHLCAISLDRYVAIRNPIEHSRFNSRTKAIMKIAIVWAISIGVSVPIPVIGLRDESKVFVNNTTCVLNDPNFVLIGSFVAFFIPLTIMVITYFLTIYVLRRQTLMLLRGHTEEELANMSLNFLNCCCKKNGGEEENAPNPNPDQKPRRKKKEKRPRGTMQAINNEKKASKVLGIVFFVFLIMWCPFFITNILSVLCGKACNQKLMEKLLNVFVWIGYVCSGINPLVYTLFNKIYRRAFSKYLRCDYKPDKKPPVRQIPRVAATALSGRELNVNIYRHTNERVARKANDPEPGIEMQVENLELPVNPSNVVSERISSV
Method: Preparation of 5HT2C Membrane
Rats were decapitated on ice. […] Centrifugation was conducted.
as §1

[6] = target: 5HT2A receptor (Rattus norvegicus, UniProt P14842); test: 5HT2A receptor binding assay ([3H]-Ketanserin, rat striatum membrane); conditions: for inhibition at 10 µM: read-out: 5HT2A Inhibition rate (%); for affinity with 5HT2A (in words): summary of in vitro assay
Sequence of 5HT2A receptor (P14842 whole entry): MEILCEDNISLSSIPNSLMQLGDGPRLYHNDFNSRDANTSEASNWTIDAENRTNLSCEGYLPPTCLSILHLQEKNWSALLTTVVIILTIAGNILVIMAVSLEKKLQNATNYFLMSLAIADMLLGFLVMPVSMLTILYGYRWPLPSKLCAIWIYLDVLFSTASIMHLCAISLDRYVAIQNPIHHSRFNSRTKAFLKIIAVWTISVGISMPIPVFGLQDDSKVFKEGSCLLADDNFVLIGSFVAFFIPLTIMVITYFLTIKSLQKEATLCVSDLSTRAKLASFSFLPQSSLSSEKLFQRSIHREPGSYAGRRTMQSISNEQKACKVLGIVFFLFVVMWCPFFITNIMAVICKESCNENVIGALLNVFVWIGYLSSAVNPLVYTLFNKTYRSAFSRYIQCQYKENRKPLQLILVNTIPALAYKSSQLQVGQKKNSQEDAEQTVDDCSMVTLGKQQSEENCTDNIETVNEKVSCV

[7] = target: Histamine H1 receptor (Rattus norvegicus, UniProt P31390); test: Histamine H1 receptor binding assay (3H-pyrilamine, rat cerebellum membrane); conditions: for inhibition at 10 µM: read-out: H1 Inhibition rate (%); for affinity with H1 (in words): summary of in vitro assay
Sequence of Histamine H1 receptor (P31390 whole entry): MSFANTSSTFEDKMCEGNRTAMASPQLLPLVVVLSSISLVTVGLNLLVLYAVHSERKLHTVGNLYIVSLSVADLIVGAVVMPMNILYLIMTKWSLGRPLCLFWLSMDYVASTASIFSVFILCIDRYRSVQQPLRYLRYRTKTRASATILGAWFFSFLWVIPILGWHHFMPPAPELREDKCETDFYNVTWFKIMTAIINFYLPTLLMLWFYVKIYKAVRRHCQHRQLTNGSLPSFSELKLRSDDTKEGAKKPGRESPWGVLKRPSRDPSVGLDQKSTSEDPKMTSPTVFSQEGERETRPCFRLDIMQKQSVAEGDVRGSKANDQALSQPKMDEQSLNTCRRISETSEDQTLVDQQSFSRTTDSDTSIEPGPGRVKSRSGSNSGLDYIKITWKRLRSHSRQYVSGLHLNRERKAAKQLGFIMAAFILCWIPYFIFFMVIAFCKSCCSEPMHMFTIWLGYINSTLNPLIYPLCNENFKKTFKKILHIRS
Method: The supernatant was discarded to give pellets, and homogenate F was added again to the pellets for washing. Centrifugation was conducted and repeated 3 times.
(2) 100 μL of membrane preparation was added into each reaction tube.

| Compound | affinity with 5HT1A (in words) [1] | inhibition at 10 µM [1] | affinity with α1 (in words) [2] | α1 Inhibition rate (%) [2] | affinity with D2 (in words) [3] | D2 Inhibition rate (%) [3] | affinity with D3 (in words) [4] | inhibition at 10 µM [4] | affinity with 5HT2C (in words) [5] | inhibition at 10 µM [5] | inhibition at 10 µM [6] | affinity with 5HT2A (in words) [6] | inhibition at 10 µM [7] | affinity with H1 (in words) [7] |
| --- | --- | --- | --- | --- | --- | --- | --- | --- | --- | --- | --- | --- | --- | --- |
| O=C1CCc2cc(C(O)CCN3CCC(c4noc5cc(F)ccc45)CC3)cc3c2N1CC3 (centres unmarked) [Compound 13] | high affinities | 93.6% | low affinities | 53.75% | high affinities | 96.83% | high affinities | 94.4% | low affinities | 53.6% | 96.9% | high affinities | 46.9% | low affinities |
| O=C1CCc2cc(C(O)CCN3CCC(c4noc5cc(F)ccc45)CC3)cc3c2N1CCC3 (centres unmarked) [Compound 3] | – | 91.6% | – | 51.42% | – | 97.67% | – | 93.9% | – | 61.6% | 92.5% | – | 42.5% | – |
| O=C(CN1CCC(c2noc3cc(F)ccc23)CC1)c1cc2c3c(c1)CCC(=O)N3CCC2 [Compound 1] | – | 54.6% | – | 68.75% | – | 45.89% | – | 60.9% | – | 84.6% | 84.9% | – | 84.9% | – |
| O=C1CCc2cc(CCCCCN3CCC(c4noc5cc(F)ccc45)CC3)cc3c2N1CC3 [Compound 20] | – | 83% | – | 68.86% | – | 83.23% | – | 93.2% | – | 53% | 80.3% | – | 49.3% | – |
| O=C(CCCCN1CCC(c2noc3cc(F)ccc23)CC1)c1cc2c3c(c1)CCN3C(=O)CC2 [Compound 18] | – | 84.3% | – | 56.48% | – | 88.10% | – | 98.1% | – | 54.3% | 87.8% | – | 37.8% | – |
| O=C(CCCN1CCC(c2noc3cc(F)ccc23)CC1)c1cc2c3c(c1F)CCC(=O)N3CC2 [Compound 22] | – | 91.2% | – | 53.46% | – | 93.12% | – | 91.2% | – | 76.3% | 90.2% | – | 45.2% | – |
| O=C1CCc2cc(CCCN3CCC(c4noc5cc(F)ccc45)CC3)cc3c2N1CCC3 [Compound 4] | – | 88% | – | 60.91% | – | 94.22% | – | 92.5% | – | 60% | 94% | – | 44% | – |
| O=C1CCc2cc(CCCCN3CCC(c4noc5cc(F)ccc45)CC3)cc3c2N1CC3 [Compound 17] | high affinities | 99.1% | low affinities | 46.62% | high affinities | 99.17% | high affinities | 96.2% | low affinities | 51.1% | 99.4% | high affinities | 35.4% | low affinities |
| O=C1CCc2cc(C(O)CCCN3CCC(c4noc5cc(F)ccc45)CC3)cc3c2N1CC3 (centres unmarked) [Compound 16] | high affinities | 99.4% | low affinities | 51.19% | high affinities | 98.34% | high affinities | 98.3% | low affinities | 55.4% | 98.8% | high affinities | 38.8% | low affinities |
| O=C1CCc2cc(C(O)CCCN3CCC(c4noc5cc(F)ccc45)CC3)cc3c2N1CCC3 (centres unmarked) [Compound 6] | high affinities | 99.6% | low affinities | 60.91% | high affinities | 98.48% | high affinities | 98.5% | low affinities | 61.6% | 99.1% | high affinities | 49.1% | low affinities |
| O=C(CCCCN1CCC(c2noc3cc(F)ccc23)CC1)c1cc2c3c(c1)CCC(=O)N3CCC2 [Compound 8] | – | 89.5% | – | 41.19% | – | 90.17% | – | 72.4% | – | 59.5% | 93% | – | 45.5% | – |
| CC1CC(=O)N2CCCc3cc(C(=O)CCCN4CCC(c5noc6cc(F)ccc56)CC4)cc1c32 (centres unmarked) [Compound 9] | – | 84% | – | 66.62% | – | 91.76% | – | 86% | – | 54% | 90.2% | – | 46% | – |
| O=C1CCc2cc(CCCN3CCC(c4noc5cc(F)ccc45)CC3)cc3c2N1CC3 [Compound 14] | high affinities | 87% | low affinities | 50.91% | high affinities | 94.65% | high affinities | 96.9% | low affinities | 57% | 93.9% | high affinities | 43.9% | low affinities |
| O=C(CN1CCC(c2noc3cc(F)ccc23)CC1)c1cc2c3c(c1)CCN3C(=O)CC2 [Compound 11] | – | 58.6% | – | 52.42% | – | 55.89% | – | 83.5% | – | 84.6% | 74.9% | – | 84.9% | – |
| CC1CC(=O)N2CCCc3cc(CCCCN4CCC(c5noc6cc(F)ccc56)CC4)cc1c32 (centres unmarked) [Compound 10] | – | 82.9% | – | 46.48% | – | 85.88% | – | 80.2% | – | 55.9% | 83.5% | – | 43.9% | – |

Reference: patent publication US10517862B2, “Fused heterocyclic compound derivative and application thereof” (NHWA PHARMA. CORPORATION, priority 2015, dated 2019)
